Assay [1] concerns the target T1, L-lactate dehydrogenase A chain (Homo sapiens, UniProt P00338). As to the kind of experiment: Inhibition of human LDHA assessed as reduction in lactate production using pyruvate as substrate at 10 uM in presence of NADH by spectrophotometric analysis relative to control.
Assay [2] concerns the target L-lactate dehydrogenase B chain (Homo sapiens) (UniProt P07195). As to the kind of experiment: Inhibition of human LDHB assessed as reduction in lactate production using pyruvate as substrate at 10 uM in presence of NADH by spectrophotometric analysis relative to control.
Assay [3] addresses T1, L-lactate dehydrogenase A chain. As to the kind of experiment: Non-competitive inhibition of human LDHA assessed as reduction in lactate production using pyruvate as substrate in presence of NADH by Lineweaver-Burk plot analysis.

Chain of L-lactate dehydrogenase B chain (Homo sapiens) (P07195 2-334 limits assumed): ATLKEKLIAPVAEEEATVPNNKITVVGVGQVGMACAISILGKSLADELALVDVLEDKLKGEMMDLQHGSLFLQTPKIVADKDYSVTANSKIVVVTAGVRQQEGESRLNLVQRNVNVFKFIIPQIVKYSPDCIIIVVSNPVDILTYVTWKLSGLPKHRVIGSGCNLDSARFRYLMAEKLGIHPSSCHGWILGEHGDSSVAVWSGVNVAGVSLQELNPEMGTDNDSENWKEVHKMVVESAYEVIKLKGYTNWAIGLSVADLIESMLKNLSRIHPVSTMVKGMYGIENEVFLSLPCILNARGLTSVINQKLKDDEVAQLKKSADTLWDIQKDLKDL

On to `CCCCCc1cc2c(c(O)c1C(=O)O)[C@@H]1C=C(C)CC[C@H]1C(C)(C)O2` [DELTA9-TETRAHYDROCANNABINOLIC ACID A], for which the results for the inhibition in assay [1] and in assay [2] were greater than 50% and less than 50%, respectively. Further, the Ki (commonly a measure of affinity in units of concentration, obtained from inhibition or displacement) in assay [3] worked out at 6.5 µM. For `CCCCCc1cc(O)c2c(c1)OC(C)(C)c1ccc(C)cc1-2`, the inhibition (usually the share of the control response that was lost under treatment) in assay [2] is less than 50%.

`CCCCCc1cc(O)c2c(c1)OC(C)(C)[C@@H]1CCC(C)=C[C@@H]21` [DRONABINOL]: the inhibition in assay [2] was less than 50%. Besides, the Ki in assay [3] is 14 µM. With `CCCc1cc(O)c2c(c1)OC(C)(C)[C@@H]1CCC(C)=C[C@@H]21`, the inhibition in assay [2] is less than 50%. In the case of `CCCc1cc2c(c(O)c1C(=O)O)[C@@H]1C=C(C)CC[C@H]1C(C)(C)O2`, in assay [2], the inhibition is less than 50%. `C=C(C)[C@@H]1CCC(C)=C[C@H]1c1c(O)cc(CCCCC)cc1O` [CANNABIDIOL]: the inhibition in assay [2] was less than 50%. Moreover, the Ki in assay [3] was 24 µM. Consider `CCCCCc1cc(O)c(C/C=C(\C)CCC=C(C)C)c(O)c1`, for which, in assay [2], the inhibition was less than 50%. Turning to `CCCCCc1cc(O)c(C/C=C(\C)CCC=C(C)C)c(O)c1C(=O)O`, the inhibition in assay [2] was less than 50%.

`CCCCCc1cc(O)c2c(c1)OC(C)(CCC=C(C)C)C=C2` (centres undefined) [CANNABICHROMENE]: the values for the inhibition in assay [1] and in assay [2] were greater than 50% and less than 50%, respectively. The Ki in assay [3] came out at 8.5 µM. For `C=C(C)[C@@H]1CCC(C)=C[C@H]1c1c(O)cc(CCCCC)c(C(=O)O)c1O`, the inhibition in assay [2] was less than 50%. Turning to `C=C(C)[C@@H]1CCC(C)=C[C@H]1c1c(O)cc(CCC)cc1O`, in assay [2], the inhibition is less than 50%. Consider `CCCc1cc(O)c(C/C=C(\C)CCC=C(C)C)c(O)c1C(=O)O`, for which, in assay [2], the inhibition was less than 50%. The same measure, in the same setting: the value for `C=C(C)[C@@H]1CCC(C)=C[C@H]1c1c(O)cc(CCC)c(C(=O)O)c1O` was less than 50%. Still for that read-out and setting: then `CCCc1cc(O)c(C/C=C(\C)CCC=C(C)C)c(O)c1`, with less than 50%; and `CCCCCc1cc2c(c(O)c1C(=O)O)-c1cc(C)ccc1C(C)(C)O2`, with less than 50%; and `CCCCCc1cc2c(c(O)c1C(=O)O)C=CC(C)(CCC=C(C)C)O2` (centres undefined), with less than 50%. Turning to `CC(C)=CCC/C(C)=C/Cc1c(O)cc(C)cc1O`, in assay [2], the inhibition is less than 50%. As for `CCCc1cc2c(c(O)c1C(=O)O)C=CC(C)(CCC=C(C)C)O2` (centres undefined), the inhibition in assay [2] is less than 50%.
